Experimental data published in patent US20130263297A1, “METHODS OF TREATING CANCER” (Cedars-Sinai Medical Center, priority 2010, published 2013).
“Also recorded” adds a separate entry of the source.

How the values were obtained:
[1] = system: RANKL promoter in LNCaP and LNCaP-RANKL cells; experiment: RANKL promoter reporter assay, LNCaP model; format: cell-based, human
ARCaPE and ARCaPM cells = experiment: EMT marker / RANKL expression by RT-PCR and Western blot and morphology, ARCaP model; format: cell-based, human; set-up: N-cadherin expression in ARCaPE cells (Example 9) / E-cadherin expression in ARCaPE cells (Example 9) / Snail expression in ARCaPE cells (Example 9) / vimentin expression in ARCaPE cells (Example 9): dose or concentration left out as unconfirmed
Experimental: 4×10^5 ARCaP and PC3 cells were seeded into a 6-well plate and cultured for 48 hrs until they grow to 90% confluence. The RANKL siRNA (50 pmole) and siRNA control (50 pmole) and lipofetamine (2.5 ul) were mixed with 250 ul of OPTI-medium without any FBS, respectively and incubated at RT for 5 minutes. The DNA and lipofetamine were then mixed together and incubated for 20 minutes before adding to the cells in each well. The medium was changed to normal 5% T-medium after 6 h incubation. The cells were incubated at 37° C. for two days before harvesting.
Total of 30 ug of proteins per well from both ARCaPE and ARCaPM cells were run on a Tris-Bis 4-12% gradient polyacrylamide gel (Invitrogen) one and half hours at 150 Volts. The proteins on the gel were then transferred to PVDF membranes using Hoefer semi-dry system. The membranes were incubated with 5% skim milk in PBST (Blocking solution) for 20 min to block non-specific antibody labeling. The RANKL primary antibody was diluted with blocking solution (1:200 and 1:500) and incubated with the membrane for one hour at RT on a rocker or overnight at 4° C. The membrane was washed with PBST (PBS+0.01% TWEEN) three times for a minimum of 5 min each. Secondary rabbit anti-goat antibodies were incubated with the membrane for one hour at RT on a rocker. The membrane was again washed with PBST three times for 5 min each. Chemiluminescent substrate (Western Lightning) was evenly added across the top surface of the membrane, and the membrane was exposed to X-ray films for 30 seconds to 2 minutes depending on the strength of the signals and then developed according to the manufacturer's instructions.
For each reaction, a 50 μl PCR reaction mix containing 5 μl of 10×PCR buffer, 1.5 ul of 50 mM MgCl2, 1 ul of 10 mM dNTP, 1 ul of each forward and reverse primers (RANKL F: […] (SEQ ID NO:1) and RANKL R: […] (SEQ ID NO:2); GAPDH as the positive control), 3 ul cDNA, 37 ul double distilled water, and 0.5 μl of Taq polymerase (Invitrogen) was made. The reaction was first activated at 94° C. for 2 min and run for 36 cycles of 94° C. (30 sec-melting), 60° C. (30 sec-annealing), and 72° C. (60 sec-extension), and lastly incubated at 72° C. for 5 min to amplify the cDNA. A 1% gel electrophoresis was run with 5 μl of 100 by DNA ladder and 10 μl of amplified cDNA of each sample to check the size of the cDNA and also whether it was successfully synthesized under UV light. […]
ARCaPE or ARCaPM cells were seeded into 6-well plate and transiently transfected with flag-tagged RANKL or neo plasmid DNA under the regulation by CMV-promoter, or RANKL siRNA (Santa Cruz Biotechnology, Inc., Santa Cruz, Calif.) with an universal scramble siRNA which serves as the control (Invitrogen, Carlsbad, Calif.). After 48 h of transfection, cells were harvested for western blotting and RT-PCR analyses. For stable transfection, LNCaP cells were first transfected with either flag-tagged RANKL- or neo-control-plasmid cDNA (Sigma-Aldrich, St. Louis, Mo.) in a 6-well plate for 48 h, and the cells were trypsinized and seeded into a 15 cm dish. The cells contain the transfected vector were selected in 400 μg/ml of G418 until individual colonies that contain transfected construct were formed. LNCaP cell colonies expressing flag-tagged RANKL or neo plasmid were picked and the cells were amplified from a 48-well plate to a 10 cm dish in the presence of G418. Stable clones were maintained in 200 μg/ml of G418 and routinely checked for flag-RANKL expression by western blot analysis.
Total RNA from cells was isolated using RNeasy Mini Kit (Qiagen, Valencia, Calif.) according to manufacturer's instructions. […]

[2] = system: cMyc site within the RANKL promoter in LNCaP cells; experiment: ChIP analysis (quantitative real-time PCR) of cMyc binding to the RANKL promoter; format: cell-based, human
[3] = system: ARCaPE, ARCaPM and ARCaPE-RANKL cells; experiment: In vitro migration and invasion assays (transwell), ARCaP model; format: cell-based, human
Experimental: (§1) Migration and invasion of cancer cells were examined in 24-well plates using either uncoated or collagen I- and growth factor reduced Matrigel (BD Biosciences, Bedford, Mass.)-coated transwells (8 μm pore size), respectively, as previously described. Cells were serum-starved in RPMI 1640 or T-medium (Invitrogen, Carlsbad, Calif.) overnight and dissociated in 10 mM EDTA/HEPES. The lifted cells were washed and counted, and 5×10^4 cells were seeded in 100 μl of serum-free RPMI 1640 or T-medium in the upper chamber of the transwells in the presence or absence of 1 μg/ml OPG and 400 μl of RPMI 1640 or T-medium supplemented with 5% FBS was placed in the lower chamber of the transwells. After 24 h (migration) and 48 h (invasion) of culturing at 37° C., the migrated and invaded cells were fixed with 10% formaldehyde, stained with 0.5% crystal violet, and the cells at the upper side of the membrane of the chamber were removed and quantified.

[4] = system: RANKL promoter in ARCaPE, ARCaPM and ARCaPE-RANKL cells; experiment: RANKL promoter reporter assay, ARCaP model; format: cell-based, human
Source text: Because the inventors are interested in how RANKL is transcriptionally regulated, the inventors have constructed a 2.5 kb 5′ upstream region of RANKL promoter. The inventors used BAC clones (RP11-86N24) to amplify the promoter region of RANKL from human chromosome 13 contig. The whole promoter region (2.5 kb) was then cloned into pGL3 basic luciferase reporter vector. The inventors placed RANKL promoter reporter into ARCaPE,M, C4-2, and a positive cell line, SaOS-2 to examine the basic promoter activity. Then, the inventors stimulated the RANKL promoter by various growth factors, such as vitamin D3, PTH, and TGFβ.

[5] = system: LNCaP and LNCaP-RANKL cells; experiment: In vitro migration and invasion assays (transwell), LNCaP model; format: cell-based, human
Experimental: as §1

[6] = system: prostate (ARCaP and LNCaP) and osteosarcoma (MG-63 and Saos-2) cells; normal prostate (PrEC and RWPE-1) or bone (RAW264.7) cells; experiment: RANKL induction of its own expression, cancer versus normal cells; format: cell-based
[7] = recombinant RANKL 200 and 400, four days

Molecule: osteoprotegerin [OPG]
- increased RANKL promoter activity in LNCaP-RANKL cells ([1]; OPG treatment): attenuated
- RANKL expression in ARCaPM cells (ARCaPE and ARCaPM cells; 1 ug/ml of OPG): down-regulated
- Vimentin in ARCaPE cells (WB) (ARCaPE and ARCaPM cells; RANKL plus OPG): significantly reduced
- N-cad and Vimentin expression in ARCaPE cells (RT-PCR) (ARCaPE and ARCaPM cells; RANKL plus OPG compared to 300 ng/ml RANKL): slightly decreased
- E-cad expression in ARCaPE cells (RT-PCR, WB) (ARCaPE and ARCaPM cells; RANKL plus OPG compared to RANKL): restore
- RANKL-induced EMT and cadherin switch in ARCaPE cells (ARCaPE and ARCaPM cells; addition of OPG): blocked; also recorded: abolished
- RANKL-induced RANKL expression in ARCaPE cells (ARCaPE and ARCaPM cells; addition of OPG): attenuated
- EMT phenotype of ARCaPM cells (morphology, mesenchymal genes, cadherin switch) (ARCaPE and ARCaPM cells; exposure to OPG (1 μg/ml)): reversed
- induction of cMyc binding to the cMyc site ([2]; exposing to OPG): dampened
- increased migration and invasion of ARCaPE-RANKL cells ([3]; OPG treatment): suppressed
- migration and invasion of ARCaPM cells ([3]; OPG treatment, 1 μg/ml): antagonized; also recorded: decreased
- RANKL-induced increase of migration and invasion of ARCaPE cells ([3]; presence of OPG): abrogated
- RANKL promoter activity in ARCaPM cells ([4]; OPG treatment): dampen
- increased RANKL promoter activity in ARCaPE-RANKL cells ([4]; OPG treatment): attenuated
- increased migration and invasion of LNCaP-RANKL cells ([5]; OPG treatment): antagonized; also recorded: suppressed
- RANKL-induced increase of migration and invasion of LNCaP cells ([5]; presence of OPG): abrogated

B1: RANKL: trimerized recombinant RANKL protein (rRANKL), receptor activator of NF-KB ligand (protein, UniProt O14788 69-317, looked up)
extracellular domain: YFRAQMDPNRISEDGTHCIYRILRLHENADFQDTTLESQDTKLIPDSCRRIKQAFQGAVQKELQHIVGSQHIRAEKAMVDGSWLDLAKRSKLEAQPFAHLTINATDIPSGSHKVSLSSWYHDRGWAKISNMTFSNGKLIVNQDGFYYLYANICFRHHETSGDLATEYLQLMVYVTKTSIKIPSSHTLMKGGSTKYWSGNSEFHFYSINVGGFFKLRSGEEISIEVSNPSLLDPDQDATYFGAFKVRDID
modifications: extracellular domain trimerized
- RANKL promoter activity in LNCaP cells ([1]; RANKL treatment): induction
- E-cadherin expression in ARCaPE cells (ARCaPE and ARCaPM cells; 200 ng/ml recombinant RANKL): down-regulated
- N-cadherin expression in ARCaPE cells (ARCaPE and ARCaPM cells; 200 ng/ml recombinant RANKL): up-regulated
- Snail, vimentin, and RANKL expression in ARCaPE cells (ARCaPE and ARCaPM cells; 200 ng/ml recombinant RANKL): up-regulation
- cell morphology of ARCaPE cells (ARCaPE and ARCaPM cells; 200 ng/ml recombinant RANKL protein, 8-day period): gradually changed their morphology from cobble-stoned clusters to more dispersed and fibroblastic-like appearance
- Vimentin in ARCaPE cells (WB) (ARCaPE and ARCaPM cells; RANKL alone): only slightly increased
- RANKL expression at mRNA and protein levels in ARCaPE cells (ARCaPE and ARCaPM cells; RANKL treatment): up-regulated
- N-cadherin expression in ARCaPE cells (Example 9) (ARCaPE and ARCaPM cells; [7]): slightly increased
- Snail expression in ARCaPE cells (Example 9) (ARCaPE and ARCaPM cells; [7]): no effect
- vimentin expression in ARCaPE cells (Example 9) (ARCaPE and ARCaPM cells; [7]): increases
- E-cadherin expression in ARCaPE cells (Example 9) (ARCaPE and ARCaPM cells; recombinant RANKL 200 and 400, four days, RNA and protein level): decrease
- increase of cMyc binding to the cMyc site ([2]; RANKL-treated LNCaP cells, quantitative real-time PCR): ~11 fold
- ability of recombinant RANKL to induce its own expression [6]: restricted to cancer
- migration and invasion of ARCaPE cells ([3]; recombinant RANKL treatment): increased
- RANKL promoter activity in ARCaPE and ARCaPM cells ([4]; RANKL treatments): induced
- migration and invasion of LNCaP cells ([5]; recombinant RANKL treatment): increased
